Source: ChEMBL document CHEMBL4732175, “Design and Characterization of a Pyridone-Containing EZH2 Inhibitor Phosphate Prodrug” (J Med Chem, 2021)
≈ marks a conversion by molar mass, not a printed value. Blank lines part the entries; values can stand above or below the compound they belong to. Calls of active or inactive are those of the source. The calls are words filed in the database; no cut-off is given here.

Legend:
[1] = Chemical stability in simulated gastric fluid at pH 1.2; format: physicochemical
KARPAS-422 [2] = assay: Antitumor activity against human KARPAS-422 cells xenografted in mouse assessed as inhibition of tumor growth inhibition at 60 to 240 mg/kg/day dosed via MC formulation for 30 days; format: functional, organism-based; details: dose 60-240 mg/kg/day, time 30.0 day
[3] = Drug level in mouse plasma at 30 to 120 mg/kg, po BID; format: ADME, organism-based; details: in vivo, dose 30-120 mg/kg
KARPAS-422 [4] = assay: Antitumor activity against human KARPAS-422 cells xenografted in mouse assessed as inhibition of tumor growth inhibition at 240 mg/kg/day dosed via SEDDS formulation for 30 days; format: functional, organism-based; details: time 30.0 day
[5] = Drug metabolism in mouse plasma assessed as 5,8-dichloro-2-((4,6-dimethyl-2-oxo-1,2-dihydropyridin-3-yl)methyl)-7-(3,5-dimethylisoxazol-4-yl)-3,4-dihydroisoquinolin-1(2H)-one formation at 30 to 120 mg/kg, po BID; format: ADME, organism-based; details: in vivo, dose 30-120 mg/kg
[6] = Chemical stability in simulated intestinal fluid at pH 6.8; format: physicochemical
[7] = Solubility in 0.5% MC formulation contained 1 equivalent of NaOH; format: physicochemical; details: 0.5% MC formulation containing 1 equivalent of NaOH
KARPAS-422 [8] = assay: Antitumor activity against human KARPAS-422 cells xenografted in mouse assessed as inhibition of tumor growth inhibition at 147 mg/kg/day dosed via MC formulation for 30 days and measured up to 40 days after dosing cessation; format: functional, organism-based; details: time 30.0 day
[9] = Drug level in rat plasma at 2000 mg/kg/day, po; format: ADME, organism-based; details: in vivo
[10] = Drug metabolism in rat plasma assessed as 5,8-dichloro-2-((4,6-dimethyl-2-oxo-1,2-dihydropyridin-3-yl)methyl)-7-(3,5-dimethylisoxazol-4-yl)-3,4-dihydroisoquinolin-1(2H)-one formation at 2000 mg/kg/day, po; format: ADME, organism-based; details: in vivo
KARPAS-422 [11] = assay: Antitumor activity against human KARPAS-422 cells xenografted in mouse assessed as inhibition of tumor growth inhibition at 120 mg/kg/day dosed via MC formulation for 30 days; format: functional; details: KARPAS-422, 720 h, time 30 day, read-out: TGI
KARPAS-422 [12] = assay: Antitumor activity against human KARPAS-422 cells xenografted in mouse assessed as inhibition of tumor growth inhibition at 60 mg/kg/day dosed via MC formulation for 30 days; format: functional; details: KARPAS-422, 720 h, time 30 day, read-out: TGI
KARPAS-422 [13] = assay: Antitumor activity against human KARPAS-422 cells xenografted in mouse assessed as inhibition of tumor growth inhibition at 240 mg/kg/day dosed via MC formulation for 30 days; format: functional; details: KARPAS-422, 720 h, time 30 day, read-out: TGI
[14] = Apparent solubility of the compound; format: physicochemical
[15] = biological target: T1, Histone-lysine N-methyltransferase EZH2 (Homo sapiens, UniProt Q15910); assay: Inhibition of wild type EZH2 (unknown origin)
T1 sequence (Q15910 whole entry): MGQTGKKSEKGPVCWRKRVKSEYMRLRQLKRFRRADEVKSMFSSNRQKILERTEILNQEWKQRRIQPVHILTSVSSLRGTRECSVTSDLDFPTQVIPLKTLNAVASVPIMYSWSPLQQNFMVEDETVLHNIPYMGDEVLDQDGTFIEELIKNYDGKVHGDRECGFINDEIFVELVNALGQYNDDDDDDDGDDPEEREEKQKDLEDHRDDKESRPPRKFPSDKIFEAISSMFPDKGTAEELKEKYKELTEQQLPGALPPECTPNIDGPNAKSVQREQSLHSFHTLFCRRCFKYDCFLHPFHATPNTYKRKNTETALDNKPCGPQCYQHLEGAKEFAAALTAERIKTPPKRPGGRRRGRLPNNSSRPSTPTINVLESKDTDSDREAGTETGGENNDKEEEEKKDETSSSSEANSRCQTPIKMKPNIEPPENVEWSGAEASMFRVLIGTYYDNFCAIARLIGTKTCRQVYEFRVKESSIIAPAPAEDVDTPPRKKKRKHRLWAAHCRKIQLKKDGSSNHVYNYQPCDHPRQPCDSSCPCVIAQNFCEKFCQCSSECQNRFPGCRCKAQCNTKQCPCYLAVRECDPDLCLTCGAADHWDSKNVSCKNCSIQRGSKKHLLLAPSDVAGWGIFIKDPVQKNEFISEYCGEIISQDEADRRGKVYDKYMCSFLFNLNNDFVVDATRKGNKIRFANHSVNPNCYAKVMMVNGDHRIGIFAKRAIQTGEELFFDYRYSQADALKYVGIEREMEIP

[16] = Distribution coefficient, log D of compound; format: physicochemical; details: octanol/water
[17] = biological target: Histone-lysine N-methyltransferase EZH2 (Homo sapiens, UniProt Q15910, Y641N); assay: Inhibition of wild type EZH2 Y641N mutant (unknown origin)
Chain of Histone-lysine N-methyltransferase EZH2 (Homo sapiens, UniProt Q15910, Y641N) (Q15910 whole entry Y641N): as the sequence (Q15910 whole entry) above, with Y641N counted along it

[18] = Thermodynamic solubility in 0.5% MC/0.1% polysorbate 80 aqueous vehicle; format: physicochemical; details: read-out: Therm_solubility
KARPAS-422 [19] = assay: Inhibition of cell proliferation in human KARPAS-422 cells; format: functional, cell-based
[20] = Drug level in mouse plasma at 120 mg/kg, po BID dosed using SEDDS formulation; format: ADME, organism-based; details: in vivo
[21] = Intrinsic clearance in human liver microsomes; format: ADME, Microsome; details: read-out: CLH
[22] = biological target: T1, Histone-lysine N-methyltransferase EZH2; assay: Inhibition of wild type EZH2 in human KARPAS-422 cells assessed as effect on H3K27Me3 levels; format: cell-based
KARPAS-422 [23] = assay: Antitumor activity against human KARPAS-422 cells xenografted in mouse assessed as inhibition of tumor growth inhibition at 240 mg/kg/day dosed via SEDDS formulation for 30 days; details: KARPAS-422, 720 h, read-out: TGI
[24] = Permeability in MDCK cells; format: ADME, cell-based, Canis lupus familiaris; details: dog, read-out: permeability

- Cp [3]: < 1 ng/mL
- Drug metabolism [5]: Dose-dependent effect
- solubility [7]: 21600 µM
- Drug uptake [9]: Not Active
- Drug metabolism [10]: Metabolite_Detected
SMILES: Cc1cc(C)n(COP(=O)(O)O)c(=O)c1CN1CCc2c(Br)cc(-c3c(C)nnn3C)c(Cl)c2C1=O
- Stabilty [1]: 8 h
- TGI (KARPAS-422 [2]): Dose-dependent effect
- TGI (KARPAS-422 [4]): Active
- Stabilty [6]: 8 h
- TGI (KARPAS-422 [8]): Active
- inhibition in vivo at 120 mg/kg/day (KARPAS-422 [11]): 59%
- inhibition in vivo at 60 mg/kg/day (KARPAS-422 [12]): 37%
- inhibition in vivo at 240 mg/kg/day (KARPAS-422 [13]): 121%

- solubility [14]: 140 µM (≈ 62.5 µg/mL)
- Ki [15]: 1 nM
- logD [16]: 3.1
SMILES: Cc1cc(C)c(CN2CCc3c(Cl)cc(-c4c(C)noc4C)c(Cl)c3C2=O)c(=O)[nH]1

- Ki [17]: 7 nM
- solubility thermodynamic [18]: 41 µM (≈ 20.1 µg/mL)
- IC50 (KARPAS-422 [19]): 36 nM
- Drug uptake [20]: Active
- microsomal CLint [21]: 27.8 µL/min/mg
- solubility [14]: 338 µM (≈ 166 µg/mL)
- IC50 [22]: 30 nM
- Ki [15]: 2 nM
- logD [16]: 2.4
- Papp [24]: 9 ×10⁻⁶ cm/s
SMILES: Cc1cc(C)c(CN2CCc3c(Br)cc(-c4c(C)nnn4C)c(Cl)c3C2=O)c(=O)[nH]1
- inhibition in vivo at 240 mg/kg/day (KARPAS-422 [23]): 98%
